According to patent publication US20170057917A1, “Polymorphs of Lomitapide and its Salts” (Hetero Research Foundation, priority 2014, published 2017):

Test: Hygroscopicity of the amorphous form
Assay type: physicochemical
Conditions: solid amorphous form; normally amorphous Forms are hygroscopic

hygroscopicity: non-hygroscopic
SMILES: CS(=O)(=O)O.O=C(NC1CCN(CCCCC2(C(=O)NCC(F)(F)F)c3ccccc3-c3ccccc32)CC1)c1ccccc1-c1ccc(C(F)(F)F)cc1 [Amorphous Lomitapide mesylate]
